The text below walks through data of patent US11415513B2, “Method for determining the degree of sensitivity of a strain of fungus to an antifungal agent” (UNIVERSITE GRENOBLE ALPES, priority 2015, dated 2022).

The structures appear in SMILES notation. In brackets after ≈: the same amount, converted by molar mass. Starred links: 1 amine or outer side, 2 acyl side, 3 side chain; linkers in the order of their positions; H or OH if unused. Positions of bridges follow the written chain, without caps; N, C: chain ends. Non-standard residues stand in square brackets, D forms with d. Residues, ends and D or L forms follow the SMILES beside them. *: point of attachment. hTyr(3S-OH,4S-OH,3'-OSO3H) = N[C@H](C(=O)O)[C@H](O)[C@@H](O)c1ccc(O)c(OS(=O)(=O)O)c1; Orn(4R-OH,5R-OH) = O=C([C@H](C[C@@H](O)[C@@H](O)N[*:3])N[*:1])[*:2]; Pro(3S-OH,4S-Me) = C[C@H]1CN[C@H](C(=O)O)[C@H]1O; X1 = CCCCCOc1ccc(-c2cc(-c3ccc(C(=O)*)cc3)no2)cc1; Gln(3R-OH) = NC(=O)C[C@@H](O)[C@H](N)C(=O)O; Hyp = O=C(O)[C@@H]1C[C@@H](O)CN1

For assay [1], the system named is strain 13/5 of C. tropicalis. Put plainly: Sensitivity test by HCA microscopy (chitin level, Calcofluor White). It is filed as cell-based, Candida tropicalis. To be noted: 6.5 h at 30° C., SC medium. On the procedure:
(§1) The strains of Candida were incubated beforehand at 30° C. overnight in a yeast extract medium—peptone dextrose (YPD) (1% bacto peptone, 0.5% yeast extract, 2% glucose, 1.5% agar).
(§2) Yeast colonies were then removed from YPD medium plates and suspended in a 0.9% NaCl saline solution, in which the cell concentration was estimated by optical microscopy using Kova counting slides. […]
(§3) A step of acquiring images by automated fluorescence microscopy (ScanR screening station, Olympus), using a 40× lens and a CFW filter, made it possible to obtain 30 images per well so as to capture enough cells to provide statistically significant data. These images were analysed by software (ScanR analysis software, Olympus). Firstly, the background noise was processed so as to improve the contrast between the fluorescence of the yeasts and background noise. […] Segmentation of the fluorescent elements present in each of the acquired images was then performed using an algorithm predefined in the software, making it possible to determine the limit of each element on the basis of the fluorescence intensity of said element. […]
(§4) Each element then corresponding to a yeast, it was thus possible, on the basis of these elements predefined beforehand, to define the fluorescence intensity for each of the yeasts, this intensity being directly correlated with the chitin content of their wall. […]

The test system of assay [2] is strain TOP of C. albicans. The description is as above. It is filed as cell-based, Candida albicans. To be noted: 6.5 h at 30° C., SC medium. On the procedure:
as §1, §2, §3, §4

The subject of assay [3] is strain TOP of C. albicans. Put plainly: Etest method (MIC). It is filed as cell-based, Candida albicans. The following applies: RPMI medium plates, 24 h at 35° C. On the procedure: The Etest® method is a commercial test for determining the sensitivity of a strain, most frequently used routinely in clinical mycology laboratories.
The Etest® tests were performed according to the manufacturer's instructions. After distributing a standardised Mac Farland 0.5 inoculum (equivalent of […]) over plates of RPMI medium, said plates were incubated for 24 h at 35° C., with the exception of C. glabrata in which case the incubation was extended to 48 h so as to be able to determine the minimum inhibitory concentration (MIC).
The results of the MICs obtained were interpreted in accordance with the tables of the CLSI (Clinical and Laboratory Standards Institute) and/or of EUCAST (European Committee on Antimicrobial Susceptibility Testing) (Arendrup M C, Cuenca-Estrella M, Lass-Flörl C, Hope W W (2014) Breakpoints for antifungal agents: an update from EUCAST focussing on echinocandins against Candida spp and triazoles against Aspergillus spp. Drug Resist Updat 16(6):81-95. doi:10.1016/j.drup.2014.01.001) (cf. Table 2 taken from Maubon D, Garnaud C, Calandra T, et al. (2014) Resistance of Candida spp. to antifungal drugs in the ICU: where are we now? Intensive Care Med. doi: 10.1007/s00134-014-3404-7) which list the clinical thresholds (CBPs) for the most common species of yeast of the genus Candida as a function of different antifungal agents, or according to the table of epidemiological thresholds (ECVs).

The mark [4] stands for this setting: vs cells in the absence of antifungal agent, concentration gradient up to 1 μg/ml.

The MIC is the smallest concentration in the dilution series that meets the test's criterion for growth inhibition. Low values mean inhibition by little substance, high ones a need for much substance. Turning to `CCCCCOc1ccc(-c2cc(-c3ccc(C(=O)N[C@H]4C[C@@H](O)[C@@H](O)NC(=O)[C@@H]5[C@@H](O)[C@@H](C)CN5C(=O)[C@H]([C@H](O)CC(N)=O)NC(=O)[C@H]([C@H](O)[C@@H](O)c5ccc(O)c(OS(=O)(=O)O)c5)NC(=O)[C@@H]5C[C@@H](O)CN5C(=O)[C@H]([C@@H](C)O)NC4=O)cc3)no2)cc1` [micafungin] (X1-[Orn(4R-OH,5R-OH)]T[Hyp][hTyr(3S-OH,4S-OH,3'-OSO3H)][Gln(3R-OH)][Pro(3S-OH,4S-Me)]; lactam 1-C), the “phenotype of the strain with respect to the antifungal agent (HCA)” value in assay [1] and in assay [2] was “resistant (an increase in the chitin level having a value less than 10% or a decrease in the chitin level of less than 20% or an unchanged chitin level)” in each case. Besides, the “increase in the chitin level in the wall of the cells” value in assay [1] (setting [4]) and in assay [2] (setting [4]) was “less than 10%” in each case. Besides, the MIC in assay [3] (Candida albicans) worked out at 1 µg/mL (≈ 0.787 µM). In addition, the “phenotype by Etest MIC, interpretation by the EUCAST and CLSI tables” value in assay [3] is “resistant”.
